{
  "source": "paper PMC9603178",
  "about": "“Human Claudin-Derived Peptides Block the Membrane Fusion Process of Zika Virus and Are Broad Flavivirus Inhibitors” (Microbiology Spectrum, 2022)",
  "key": {"[1]": {"test_system": "ZIKV (Brazil/2016/INMI1 strain)", "experiment": "Dose-dependent effect on ZIKV infection of Vero E6 cells", "assay_type": "cell-based, Zika virus", "settings": "MOI of 1, Brazil/2016/INMI1 strain, fitted dose-response model", "protocol": "FIG 4 Amphipathicity was involved in the differences in potency between claudin-derived peptides. […] Three amino acids of interest at positions 11, 15, and 18 are indicated. (B) Sequences of the parental and modified peptides. The swapped amino acids are highlighted. (C) ZIKV (MOI of 1) was treated with 50 μM of the modified peptides described in (B) for 1 h. […] Left or right orientations of the helixes are indicated with an arrow and the hydrophobic faces of each peptide are shown with a black line. […] The dark line represents the fitted dose-response model for each peptide and the light area represents the 95% confidence interval of the model. The calculated IC50 is indicated.\nA D-enantiomer of an alpha helix forms a mirrored left-handed helix (Fig. 4D) but retains the same physicochemical properties ([28])."}, "ZIKV [2]": {"test_system": "ZIKV", "experiment": "ZIKV internalization assay in hCMEC/D3 cells", "assay_type": "cell-based, Zika virus", "settings": "2 h at 37°C"}, "ZIKV [3]": {"test_system": "ZIKV", "experiment": "ZIKV binding assay on hCMEC/D3 cells", "assay_type": "cell-based, Zika virus"}, "ZIKV [4]": {"test_system": "ZIKV", "experiment": "ZIKV viral production, supernatants of infected hCMEC/D3 cells titrated on Vero E6 cells", "assay_type": "cell-based, Zika virus", "settings": "50 μM peptide, MOI of 1, titrated on Vero E6"}, "ZIKV [5]": {"test_system": "ZIKV", "experiment": "ZIKV replication and production in TrHBMEC, HUVEC, A549 and HEK 293T cells", "assay_type": "cell-based, Zika virus", "settings": "50 μM peptide, MOI of 1, HUVEC, RT-qPCR and titration"}, "ZIKV E-mediated fusion": {"test_system": "ZIKV E-mediated fusion", "assay_type": "cell-based, Zika virus", "settings": "C6/36 infected with ZIKV MOI of 2 for 48 h, acidification 2 h, fusion index"}, "SARS-CoV-2": {"test_system": "SARS-CoV-2", "assay_type": "cell-based", "settings": "50 μM, Vero E6 cells, MOI of 1, 72 h, flow cytometry"}, "ZIKV [6]": {"test_system": "ZIKV", "settings": "for IC50: read-out: IC50, ZIKV infection in hCMEC/D3, ZIKV MOI of 1, hCMEC/D3, fitted dose-response model, R^2 0.9 (CL1.1) and 0.7 (CL7.1)"}, "Caco-2 epithelial cells": {"test_system": "Caco-2 epithelial cells", "settings": "50 μM, differentiated Caco-2 monolayers on Transwell, over 24 h, n = 3"}, "HIV-1": {"test_system": "HIV-1", "settings": "50 μM, human primary CD4+ T cells, 72 h, flow cytometry"}, "HCV": {"test_system": "HCV", "parameters": "method as in PMID 22378192", "settings": "Huh7.5.1 cells; cited from earlier work"}, "ZIKV [7]": {"test_system": "ZIKV", "experiment": "Pretreatment of hCMEC/D3 cells with peptide before ZIKV infection", "settings": "10 μM for 1 h, cells washed, then ZIKV MOI of 1 for 48 h, hCMEC/D3, RT-qPCR"}, "ZIKV [8]": {"test_system": "ZIKV", "experiment": "Treatment of concentrated ZIKV stock followed by 30-fold dilution and infection of hCMEC/D3", "settings": "ZIKV stock 1.5 × 10^7 PFU/mL treated with 10 μM for 1 h, diluted by a factor of 30, hCMEC/D3, 48 h"}},
  "note": "Where a SMILES comes first, the peptide text is derived from it. Where no end group is shown, it is not given here. [ ]: non-standard residue; d: D form.",
  "data": [
    {"molecule": "CC[C@@H](C)[C@@H](NC(=O)[C@@H](Cc1ccccc1)NC(=O)CNC(=O)[C@@H](CC(C)C)NC(=O)[C@@H](CC(C)C)NC(=O)[C@@H](CCC(N)=O)NC(=O)[C@@H](CC(C)C)NC(=O)CNC(=O)[C@@H](C)NC(=O)[C@@H](CC(N)=O)NC(=O)[C@@H](C)NC(=O)[C@H](N)CCSC)C(=O)N[C@H](CC(C)C)C(=O)N[C@H](C)C(=O)N[C@H](Cc1ccccc1)C(=O)N[C@H](CC(C)C)C(=O)NCC(=O)N[C@H](Cc1c[nH]c2ccccc12)C(=O)O", "note": "[D-CL1.1] (H-[dM][dA][dN][dA]G[dL][dQ][dL][dL]G[dF][dI][dL][dA][dF][dL]G[dW]-OH; N-terminus and C-terminus assumed)", "values": [
      {"measurement": "IC50", "setting": "[1]", "value": "0.67 ± 0.04", "unit": "µM"},
      {"measurement": "antiviral properties against JEV compared with CL1.1", "setting": "JEV", "value": "comparable to that of CL1.1"},
      {"measurement": "antiviral properties against YFV compared with CL1.1", "setting": "YFV; Vero E6, MOI of 1, increasing concentrations (Fig. S6)", "value": "comparable to that of CL1.1"}
    ]},
    {"molecule": "O=C(N/N=C/c1ccc(O)c(O)c1)c1cc2ccccc2cc1O", "note": "[Dynasore, reference compound]", "values": [
      {"measurement": "reduction of viral internalization", "setting": "ZIKV [2]; 100 μM, positive control, hCMEC/D3", "value": 95, "unit": "%"}
    ]},
    {"molecule": "Heparin [reference compound]", "values": [
      {"measurement": "reduction of viral binding", "setting": "ZIKV [3]; 200 μg/mL, positive control, 1 h at 4°C, MOI of 10, hCMEC/D3", "value": 80, "unit": "%"}
    ]},
    {"molecule": "MANAGLQLLGFILAFLGW [CL1.1]", "values": [
      {"measurement": "viral production (infectious particles in supernatants)", "setting": "ZIKV [4]", "value": "below the detection limit of the assay"},
      {"measurement": "ZIKV replication and production", "setting": "ZIKV [5]", "value": "undetectable"},
      {"measurement": "binding of ZIKV to hCMEC/D3 cells", "setting": "ZIKV [3]; 10 μM, inoculum treated 1 h, adsorption 1 h at 4°C, MOI of 10, RT-qPCR", "value": "did not alter"},
      {"measurement": "ZIKV internalization in hCMEC/D3 cells", "setting": "ZIKV [2]; 10 μM, trypsin removal of surface virus, RT-qPCR", "value": "did not alter"},
      {"measurement": "reduction of syncytium formation", "setting": "ZIKV E-mediated fusion; 10 μM", "value": 80, "unit": "%"},
      {"measurement": "IC50", "setting": "[1]", "value": "0.71 ± 0.05", "unit": "µM"},
      {"measurement": "antiviral activity against SARS-CoV-2 infection", "setting": "SARS-CoV-2", "value": "No antiviral activity"},
      {"measurement": "intracellular viral RNA levels / impact on ZIKV infection", "setting": "ZIKV [6]; 50 μM peptide, hCMEC/D3, MOI of 1, 48 h, RT-qPCR", "value": "below the threshold of detection"},
      {"measurement": "IC50", "setting": "ZIKV [6]", "value": "~0.87", "unit": "µM"},
      {"measurement": "electric transepithelial resistance", "setting": "Caco-2 epithelial cells", "value": "did not alter"},
      {"measurement": "IC50", "setting": "YFV; read-out: IC50, YFV, Vero E6, MOI of 1, YFV/17D strain, titration of supernatants", "value": "0.56 ± 0.05", "unit": "µM"},
      {"measurement": "antiviral activity against HIV-1 infection", "setting": "HIV-1", "value": "No antiviral activity"},
      {"measurement": "antiviral activity against HCV infection", "setting": "HCV", "value": "exhibited antiviral activity"},
      {"measurement": "cell susceptibility to ZIKV after pretreatment of cells", "setting": "ZIKV [7]", "value": "did not affect cell susceptibility to ZIKV"},
      {"measurement": "reduction of intracellular viral RNA levels", "setting": "ZIKV [8]", "value": 80, "unit": "%"}
    ]},
    {"molecule": "MANSGLQLLGFSMALLGW [CL7.1]", "values": [
      {"measurement": "viral production (infectious particles in supernatants)", "setting": "ZIKV [4]", "value": "significantly reduced"},
      {"measurement": "ZIKV replication and production", "setting": "ZIKV [5]", "value": "significantly reduced"},
      {"measurement": "reduction of syncytium formation / fusion", "setting": "ZIKV E-mediated fusion; 50 μM", "value": 40, "unit": "%"},
      {"measurement": "reduction of viral RNA levels compared to untreated cells", "setting": "ZIKV [6]; 50 μM peptide, inoculum treated 1 h, adsorption 2 h, MOI of 1, peptide kept 48 h, hCMEC/D3, RT-qPCR", "value": 2, "unit": "fold"},
      {"measurement": "antiviral activity in the absence of pretreatment", "setting": "ZIKV [6]; 50 μM, virus and peptide added simultaneously to the cell culture, hCMEC/D3", "value": "also detected"},
      {"measurement": "IC50", "setting": "ZIKV [6]", "value": "53 ± 13", "unit": "µM"}
    ]}
  ]
}
